Measured values as given in EP0127426A1, “Percutaneous pharmaceutical compositions for external use” (Takeda Chemical Industries, Ltd., priority 1983, dated 1984).
Read-outs that look alike come from different tables or passages of the source. Blank lines part the entries; values can stand above or below the molecule they belong to.

Key:
[1] = Percutaneous absorption test in rats, TRH equivalent plasma concentration from total radioactivity (3H-labeled TRH); format: in vivo, SD-JCL male rats; settings: additive in propylene glycol preparation of TRH tartrate (Comparative Example 2)
Method: (§1) SD-JCL male rats with an average body weight of 250 g were used as test animals. Under pentobarbital anesthesia, the abdomen of each animal was clipped off hairs (20 cm^2: 5 x 4 cm) with an electric clipper and the sample was applied to the denuded area. Using 5 rats, 0.12 ml of venous blood was taken from the tail vein 1, 2, 4 and 6 hours after application of the sample. Each blood specimen was centrifuged and 0.05 ml of the plasma was put in a polyethylene minivial containing 5 ml of a toluenic scintillator and stirred. After standing, the total radioactivity of the plasma sample was measured with a β-ray scintillation spectrometer and the TRH equivalent concentration of the plasma (µg.eq./ml) was calculated.
(§2) The percutaneous absorption of TRH tartrate was evaluated in AUC6 (the area under the blood concentration-time curve during 0 to 6 hours).

[2] = rat, in vivo
Method: as §1, §2

[3] = Percutaneous absorption test in rats, TRH equivalent plasma concentration from total radioactivity (3H-labeled TRH)
[4] = rat, in vivo; remark: listed apart in the source
Method: 3 mg of clonidine, an antihypertensive drug, was dissolved in a mixture of 20 mg of lauric acid, one of the percutaneous absorption promoting agents according to this invention, and 177 mg of propylene glycol to prepare a coating sample.
A percutaneous absorption test was carried out in male SD-JCL rats with an average body weight of 250 g. Under pentobarbital anesthesia, the abdomen of each rat was clipped of hairs with an electric clipper and the sample was coated on the denuded abdominal area (5 x 4 cm).
The collected venous blood was centrifuged and 0.2 ml of the plasma was extracted with 1 ml of 0.01 N-NaOH and 5 ml of chloroform. From a 4 ml portion of the chloroform layer, the chloroform was distilled off and the residue was dissolved by addition of 0.2ml of 0.05 M sodium acetate-acetonitrile-tetrahydrofuran (70:30:0.2, v/v). A 50 µl portion of the solution was applied to a liquid chromatograph to determine the concentration of clonidine. The µ-Bondapak Cl8 column was used for this liquid chromatography. The percutaneous absorption of clonidine was evaluated in terms of AUC6 (area under the blood concentration-time curve of clonidine during 0 to 6 hours) and its multiple over the [formula] of the preparation of Comparative Example 1 was calculated.

in vivo = settings: male, SD-JCL, rat, topical or ocular

- absorption promoting effect of the additive [1]: no absorption promoting effect
Molecule: CCCCCCCCCCCCCC(=O)OC(C)C [isopropyl myristate]

- AUC6 (the area under the blood concentration-time curve during 0 to 6 hours) [2]: 0.3 ug.eq.hr/ml
Molecule: NC(=O)C1CCCN1C(=O)C(Cc1c[nH]cn1)NC(=O)C1CCC(=O)O1 [DN-1417, y-butyrolactone-y-carbonyl-L-histidyl-L-prolinamide]

- effectiveness of the percutaneous absorption promoting agent for clonidine [4]: ineffective
Molecule: CCCCCCCCCCCC(=O)O [lauric acid]

- effectiveness of the percutaneous absorption promoting agent for clonidine [4]: ineffective
Molecule: CCCCCCCC/C=C\CCCCCCCC(=O)O [oleic acid]

- AUC(0-t) (in vivo): 0.5 ng·h/mL
Molecule: CCNC(=O)[C@@H]1CCCN1C(=O)[C@H](CCCNC(=N)N)NC(=O)[C@H](CC(C)C)NC(=O)[C@@H](CC(C)C)NC(=O)[C@H](Cc1ccc(O)cc1)NC(=O)[C@H](CO)NC(=O)[C@H](Cc1c[nH]c2ccccc12)NC(=O)[C@H](Cc1c[nH]cn1)NC(=O)[C@@H]1CCC(=O)N1 [TAP-144]

Continued, molecule first:

Molecule: L-pyroglutamyl-L-histidyl-L-prolinamide [TRH]
- multiple of the AUC6 value over Comparative Example 1 ([3]; Example 5 (TRH, 30 mg oleic acid) vs Comparative Example 1): 8.7 times
- AUC6 (the area under the blood concentration-time curve during 0 to 6 hours) ([3]; Example 5: 0.5 mg TRH in 169.5 mg propylene glycol + 30 mg oleic acid): 1.4 µg.eq.hr/ml

Molecule: L-pyroglutamyl-L-histidyl-L-prolinamide [TRH tartrate]
- AUC6 (the area under the blood concentration-time curve during 0 to 6 hours) ([3]; Comparative Example 1 (TRH tartrate in propylene glycol, no absorption promoter), restated in Example 5): 0.16 ug.eq.hr/ml
- AUC6 (the area under the blood concentration-time curve during 0 to 6 hours) ([3]; Comparative Example 6: 0.8 mg TRH tartrate in 179.2 mg propylene glycol + 20 mg caprylyl alcohol (C8)): 0.19 pg.eq/ml
- multiple of the AUC6 value over the control preparation of Comparative Example 1 ([3]; Example 1 preparation (20 mg oleic acid) vs Comparative Example 1 (no absorption promoter)): approximately 8 times
- multiple of the AUC6 value over the control preparation of Comparative Example 1 ([3]; Example 3 (20 mg lauric acid, ethanol wiping) vs Comparative Example 1): 14 times
- AUC6 (the area under the blood concentration-time curve during 0 to 6 hours) ([3]; Example 3: 0.8 mg TRH tartrate in 179.2 mg propylene glycol + 20 mg lauric acid, site wiped 5 times with ethanol-sanitary cotton before application): 2.22 µg.eq.hr/ml
- multiple of the AUC6 value over the control preparation of Comparative Example 1 ([3]; Example 4 (20 mg lauric acid, horny layer stripped) vs Comparative Example 1): 38 times
- AUC6 (the area under the blood concentration-time curve during 0 to 6 hours) ([3]; Example 4: 0.8 mg TRH tartrate in 179.2 mg propylene glycol + 20 mg lauric acid, horny layer stripped 3 times with cellophane tape before application): 6.06 ug.eq.hr/ml

Molecule: CCCCCCCCCCCCN [laurylamine]
- effectiveness of the percutaneous absorption promoting agent for clonidine [4]: ineffective

Molecule: CCCCCCCC/C=C\CCCCCCCC(N)=O [oleamide]
- effectiveness of the percutaneous absorption promoting agent for clonidine [4]: ineffective
